Measurements taken from ChEMBL document CHEMBL1821559, “Grassypeptolides F and G, cyanobacterial peptides from Lyngbya majuscula” (J Nat Prod, 2011).
The source made the active and inactive calls. The calls are words filed in the database; no cut-off is given here.

Tested on: HEK-293T
Experiment: Cytotoxicity against AP1 expressing HEK293T cells coexpressing beta-lactamase pre-incubated 1 hr before TPA addition measured 18 hrs post TPA challenge by fluorimetric assay
Assay type: functional, cell-based
Settings: Homo sapiens

## CC(C)[C@H]1C(=O)N2CCC[C@H]2C(=O)N(C)[C@H](Cc2ccccc2)C2=N[C@@H](CS2)C(=O)N[C@H](C)C2=N[C@@H](CS2)C(=O)N(C)[C@H](Cc2ccccc2)C(=O)N[C@H](C(C)C)C(=O)N[C@H](C)[C@@H](C)C(=O)O[C@@H](Cc2ccccc2)C(=O)N1C
  Activity: Active

## CC[C@H]1NC(=O)[C@@H]2CSC(=N2)[C@@H](Cc2ccccc2)N(C)C(=O)[C@@H]2CCCN2C(=O)[C@H](C(C)C)N(C)C(=O)[C@H](Cc2ccccc2)OC(=O)[C@H](C)[C@@H](C)NC(=O)[C@@H](C(C)C)NC(=O)[C@@H](Cc2ccccc2)N(C)C(=O)[C@@H]2CSC1=N2
  Activity: Active
